Test results: patent US9480722B2, “Method of alleviating or treating periodontal disease” (priority 2012, dated 2016)

Tests used:
Porphyromonas gingivalis [1] = assay: Determination of minimal inhibitory concentration (MIC), broth microplate, absorbance at 600 nm; assay type: cell-based; conditions: BCRC14417, P. gingivalis BCRC 14417, 24 hours anaerobic, 37° C., concentration at absorbance ≦0.5 at 600 nm
Protocol: Porphyromonas gingivalis was purchased from Food Industry Research and Development Institute ([…], Taiwan) with the accession number BCRC 14417. After thawing from frozen tube, Porphyromonas gingivalis was activated in the supplemented brain heart infusion broth, and cultured at 37° C. anaerobic condition (80% N2, 10% H2, 10% CO2) for 24 hours to 48 hours. […] Chlorhexidine was used as positive control. The 2.5% (v/v) dimethyl sulfoxide was used as normal control.

Porphyromonas gingivalis [2] = assay: Determination of minimal bactericidal concentration (MBC), plating on sBHI agar with 5% defibrinated sheep blood; assay type: cell-based
Protocol: Porphyromonas gingivalis was purchased from Food Industry Research and Development Institute ([…], Taiwan) with the accession number BCRC 14417. After thawing from frozen tube, Porphyromonas gingivalis was activated in the supplemented brain heart infusion broth, and cultured at 37° C. anaerobic condition (80% N2, 10% H2, 10% CO2) for 24 hours to 48 hours. […] Chlorhexidine was used as positive control. […]. After Porphyromonas gingivalis with said solution of Antrodia camphorata 95% ethanol extract or chlorhexidine were cultured at 37° C. under anaerobic condition (80% N2, 10% H2, 10% CO2) for 48 hours, 10 μl aliquot […] was added to supplemented brain heart infusion agar with 5% defibrinated sheep blood. Then, broth was gently coated uniformly onto supplemented brain heart infusion agar with 5% defibrinated sheep blood by a triangular sterilized glass rod and cultured at 37° C. anaerobic condition (80% N2, 10% H2, 10% CO2) for 5 days. […] ([…] Castro et al., 2009, Bioorganic & Medicinal Chemistry, 17:5332-5335)

- MIC (Porphyromonas gingivalis [1]): 4 µg/mL
Structure (SMILES): [H]/N=C(\N/C(=N/[H])NCCCCCCNC(=N)NC(=N)Nc1ccc(Cl)cc1)Nc1ccc(Cl)cc1 [Chlorhexidine, Chlorhexidine digluconate]
- MBC (Porphyromonas gingivalis [2]; Porphyromonas gingivalis, BCRC14417): 4 µg/mL
- colony growth on supplemented brain heart infusion agar with 5% defibrinated sheep blood (Porphyromonas gingivalis [2]; concentration above 4 μg/ml, FIG. 3): no colony growing
